Test results taken from paper PMC8222254, “Self-assembly of an anion receptor with metal-dependent kinase inhibition and potent in vitro anti-cancer properties” (Nature Communications, 2021).
Several values for one entry are separate records, joined by “and”; a condition that tells them apart may be missing. Identical values can stand only once.

What was measured:
Test in all cases: Kinase inhibition screen, cell-free 33P ATP assay at 10 μM
Assay type in all cases: biochemical
[1] = target: 140 purified human kinases (Homo sapiens, UniProt Q9BYT3)
In short: (§1)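 Radiometric ^33P ATP cell-free format with purified enzymes; both complexes run at 10 μM in duplicate, results plotted on a kinome map via HGNC symbols.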

[2] = target: 140 purified human kinases (Homo sapiens, UniProt P78368)
In short: as §1

[3] = target: T1, 140 purified human kinases (Homo sapiens, UniProt P53778); settings: p38g MAPK
T1 sequence (P53778 1-367): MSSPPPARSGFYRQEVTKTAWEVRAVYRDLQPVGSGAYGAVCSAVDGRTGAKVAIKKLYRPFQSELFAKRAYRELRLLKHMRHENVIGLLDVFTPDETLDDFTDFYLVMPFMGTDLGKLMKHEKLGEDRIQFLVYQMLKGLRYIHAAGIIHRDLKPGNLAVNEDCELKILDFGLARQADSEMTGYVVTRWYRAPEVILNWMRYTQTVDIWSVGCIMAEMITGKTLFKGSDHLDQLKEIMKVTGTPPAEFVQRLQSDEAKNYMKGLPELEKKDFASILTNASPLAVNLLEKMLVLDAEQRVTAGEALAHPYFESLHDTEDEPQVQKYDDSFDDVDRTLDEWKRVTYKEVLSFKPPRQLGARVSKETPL
In short: as §1

[4] = target: 140 purified human kinases (Homo sapiens, UniProt Q9P0L2)
In short: as §1

[5] = target: T2, 140 purified human kinases (Homo sapiens, UniProt Q7L7X3)
T2 sequence (Q7L7X3 1-1001): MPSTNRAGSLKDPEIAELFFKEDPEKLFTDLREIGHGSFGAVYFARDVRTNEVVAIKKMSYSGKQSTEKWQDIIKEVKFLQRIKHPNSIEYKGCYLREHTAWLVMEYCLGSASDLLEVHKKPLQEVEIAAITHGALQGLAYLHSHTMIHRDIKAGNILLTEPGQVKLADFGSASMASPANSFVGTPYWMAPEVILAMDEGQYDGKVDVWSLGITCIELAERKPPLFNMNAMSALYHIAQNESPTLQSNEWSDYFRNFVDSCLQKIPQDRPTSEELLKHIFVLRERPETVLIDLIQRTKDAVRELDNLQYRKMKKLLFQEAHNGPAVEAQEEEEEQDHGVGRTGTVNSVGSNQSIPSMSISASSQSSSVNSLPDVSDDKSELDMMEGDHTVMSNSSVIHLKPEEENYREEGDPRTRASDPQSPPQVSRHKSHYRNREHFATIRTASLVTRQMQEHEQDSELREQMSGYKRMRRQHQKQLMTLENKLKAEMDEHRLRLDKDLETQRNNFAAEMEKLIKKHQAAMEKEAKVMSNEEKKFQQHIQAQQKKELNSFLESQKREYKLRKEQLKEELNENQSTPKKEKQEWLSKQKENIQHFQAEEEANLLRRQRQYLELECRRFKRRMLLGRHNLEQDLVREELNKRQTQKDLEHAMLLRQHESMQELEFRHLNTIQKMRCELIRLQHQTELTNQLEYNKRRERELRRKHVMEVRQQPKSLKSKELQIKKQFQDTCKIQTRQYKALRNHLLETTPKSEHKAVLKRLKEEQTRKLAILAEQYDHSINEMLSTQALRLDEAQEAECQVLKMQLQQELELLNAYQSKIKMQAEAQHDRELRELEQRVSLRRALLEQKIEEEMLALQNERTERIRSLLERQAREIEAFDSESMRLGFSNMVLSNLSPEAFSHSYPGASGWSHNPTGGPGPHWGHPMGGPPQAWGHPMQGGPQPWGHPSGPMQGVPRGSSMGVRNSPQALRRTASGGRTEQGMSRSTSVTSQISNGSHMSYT
In short: as §1

[6] = target: 140 purified human kinases (Homo sapiens, UniProt Q9H0K1)
In short: as §1

[7] = target: 140 purified human kinases (Homo sapiens, UniProt Q9H4A3)
In short: as §1

[8] = target: 140 purified human kinases (Homo sapiens, UniProt P51617)
In short: as §1

[9] = target: 140 purified human kinases (Homo sapiens, UniProt Q96GD4); settings: Aurora B
In short: as §1

Chain of 140 purified human kinases (Homo sapiens, UniProt P78368) (P78368 whole entry): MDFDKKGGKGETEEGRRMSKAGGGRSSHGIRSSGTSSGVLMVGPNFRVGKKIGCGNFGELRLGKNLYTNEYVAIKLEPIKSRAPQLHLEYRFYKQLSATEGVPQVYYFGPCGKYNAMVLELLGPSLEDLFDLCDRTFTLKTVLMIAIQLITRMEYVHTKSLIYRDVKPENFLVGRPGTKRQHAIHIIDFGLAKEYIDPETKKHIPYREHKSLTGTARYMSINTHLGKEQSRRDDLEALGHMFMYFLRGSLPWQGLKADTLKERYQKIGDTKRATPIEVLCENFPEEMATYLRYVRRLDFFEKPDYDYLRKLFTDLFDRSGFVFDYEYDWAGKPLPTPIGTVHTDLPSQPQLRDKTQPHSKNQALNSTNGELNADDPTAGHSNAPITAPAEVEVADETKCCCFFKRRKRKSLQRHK
Chain of 140 purified human kinases (Homo sapiens, UniProt Q96GD4) (Q96GD4 whole entry): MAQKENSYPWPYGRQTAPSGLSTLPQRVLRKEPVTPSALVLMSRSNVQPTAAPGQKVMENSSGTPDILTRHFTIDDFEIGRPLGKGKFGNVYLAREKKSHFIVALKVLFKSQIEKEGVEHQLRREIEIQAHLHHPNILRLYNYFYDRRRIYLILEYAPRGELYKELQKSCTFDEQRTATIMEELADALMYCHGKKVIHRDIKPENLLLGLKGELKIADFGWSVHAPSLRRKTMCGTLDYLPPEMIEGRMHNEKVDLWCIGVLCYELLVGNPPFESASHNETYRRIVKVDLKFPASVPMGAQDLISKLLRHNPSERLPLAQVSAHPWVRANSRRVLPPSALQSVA
Chain of 140 purified human kinases (Homo sapiens, UniProt Q9BYT3) (Q9BYT3 whole entry): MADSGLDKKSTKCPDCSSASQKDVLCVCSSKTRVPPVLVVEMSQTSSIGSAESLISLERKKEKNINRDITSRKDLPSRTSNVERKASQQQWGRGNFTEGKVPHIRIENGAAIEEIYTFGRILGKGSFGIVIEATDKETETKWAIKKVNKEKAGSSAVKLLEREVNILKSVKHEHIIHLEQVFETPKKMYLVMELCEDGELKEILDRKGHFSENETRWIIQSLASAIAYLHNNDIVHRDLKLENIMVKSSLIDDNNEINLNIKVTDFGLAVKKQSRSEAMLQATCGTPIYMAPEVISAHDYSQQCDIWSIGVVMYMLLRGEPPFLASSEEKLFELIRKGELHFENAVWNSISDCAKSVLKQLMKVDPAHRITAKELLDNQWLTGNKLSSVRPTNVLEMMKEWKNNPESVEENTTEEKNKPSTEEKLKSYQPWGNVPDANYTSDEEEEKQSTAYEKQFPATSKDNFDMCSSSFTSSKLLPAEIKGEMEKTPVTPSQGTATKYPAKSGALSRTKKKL
Chain of 140 purified human kinases (Homo sapiens, UniProt P51617) (P51617 whole entry): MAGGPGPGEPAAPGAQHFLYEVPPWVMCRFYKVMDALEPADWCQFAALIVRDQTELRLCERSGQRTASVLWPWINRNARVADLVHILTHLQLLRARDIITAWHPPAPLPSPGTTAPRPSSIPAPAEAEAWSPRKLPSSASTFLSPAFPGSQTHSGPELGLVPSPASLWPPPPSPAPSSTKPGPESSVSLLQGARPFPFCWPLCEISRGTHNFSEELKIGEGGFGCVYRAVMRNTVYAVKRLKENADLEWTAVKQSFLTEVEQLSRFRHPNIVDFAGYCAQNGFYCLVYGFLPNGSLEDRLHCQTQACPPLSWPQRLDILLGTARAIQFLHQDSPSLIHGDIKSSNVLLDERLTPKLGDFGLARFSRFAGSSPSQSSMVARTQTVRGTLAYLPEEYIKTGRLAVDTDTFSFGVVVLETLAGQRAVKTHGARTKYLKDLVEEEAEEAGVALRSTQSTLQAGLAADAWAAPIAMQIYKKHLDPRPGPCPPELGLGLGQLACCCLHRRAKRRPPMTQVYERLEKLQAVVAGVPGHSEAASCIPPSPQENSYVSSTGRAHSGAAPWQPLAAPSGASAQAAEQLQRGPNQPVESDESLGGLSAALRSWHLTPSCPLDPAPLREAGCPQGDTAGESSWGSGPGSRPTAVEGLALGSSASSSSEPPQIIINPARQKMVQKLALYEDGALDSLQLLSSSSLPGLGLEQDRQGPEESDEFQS
Chain of 140 purified human kinases (Homo sapiens, UniProt Q9P0L2) (Q9P0L2 whole entry): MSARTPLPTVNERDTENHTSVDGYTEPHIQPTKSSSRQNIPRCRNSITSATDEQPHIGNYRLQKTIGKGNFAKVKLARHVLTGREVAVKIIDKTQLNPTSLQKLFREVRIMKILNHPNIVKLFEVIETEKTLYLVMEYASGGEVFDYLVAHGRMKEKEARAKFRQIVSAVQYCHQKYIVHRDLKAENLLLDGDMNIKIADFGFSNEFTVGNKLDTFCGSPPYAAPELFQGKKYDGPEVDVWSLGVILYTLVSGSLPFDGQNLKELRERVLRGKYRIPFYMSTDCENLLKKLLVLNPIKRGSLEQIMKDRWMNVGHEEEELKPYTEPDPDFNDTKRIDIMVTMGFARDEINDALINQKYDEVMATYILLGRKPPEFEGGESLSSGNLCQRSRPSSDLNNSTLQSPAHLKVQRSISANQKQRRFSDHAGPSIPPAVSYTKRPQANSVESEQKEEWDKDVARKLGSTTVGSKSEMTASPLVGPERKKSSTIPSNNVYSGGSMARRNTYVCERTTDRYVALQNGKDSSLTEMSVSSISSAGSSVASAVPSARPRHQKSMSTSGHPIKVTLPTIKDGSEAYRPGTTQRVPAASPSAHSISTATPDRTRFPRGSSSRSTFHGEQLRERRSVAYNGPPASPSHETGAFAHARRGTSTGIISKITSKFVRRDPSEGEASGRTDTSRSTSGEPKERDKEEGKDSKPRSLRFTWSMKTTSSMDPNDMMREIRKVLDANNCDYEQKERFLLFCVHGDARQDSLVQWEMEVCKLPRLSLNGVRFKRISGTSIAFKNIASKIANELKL
Chain of 140 purified human kinases (Homo sapiens, UniProt Q9H0K1) (Q9H0K1 whole entry): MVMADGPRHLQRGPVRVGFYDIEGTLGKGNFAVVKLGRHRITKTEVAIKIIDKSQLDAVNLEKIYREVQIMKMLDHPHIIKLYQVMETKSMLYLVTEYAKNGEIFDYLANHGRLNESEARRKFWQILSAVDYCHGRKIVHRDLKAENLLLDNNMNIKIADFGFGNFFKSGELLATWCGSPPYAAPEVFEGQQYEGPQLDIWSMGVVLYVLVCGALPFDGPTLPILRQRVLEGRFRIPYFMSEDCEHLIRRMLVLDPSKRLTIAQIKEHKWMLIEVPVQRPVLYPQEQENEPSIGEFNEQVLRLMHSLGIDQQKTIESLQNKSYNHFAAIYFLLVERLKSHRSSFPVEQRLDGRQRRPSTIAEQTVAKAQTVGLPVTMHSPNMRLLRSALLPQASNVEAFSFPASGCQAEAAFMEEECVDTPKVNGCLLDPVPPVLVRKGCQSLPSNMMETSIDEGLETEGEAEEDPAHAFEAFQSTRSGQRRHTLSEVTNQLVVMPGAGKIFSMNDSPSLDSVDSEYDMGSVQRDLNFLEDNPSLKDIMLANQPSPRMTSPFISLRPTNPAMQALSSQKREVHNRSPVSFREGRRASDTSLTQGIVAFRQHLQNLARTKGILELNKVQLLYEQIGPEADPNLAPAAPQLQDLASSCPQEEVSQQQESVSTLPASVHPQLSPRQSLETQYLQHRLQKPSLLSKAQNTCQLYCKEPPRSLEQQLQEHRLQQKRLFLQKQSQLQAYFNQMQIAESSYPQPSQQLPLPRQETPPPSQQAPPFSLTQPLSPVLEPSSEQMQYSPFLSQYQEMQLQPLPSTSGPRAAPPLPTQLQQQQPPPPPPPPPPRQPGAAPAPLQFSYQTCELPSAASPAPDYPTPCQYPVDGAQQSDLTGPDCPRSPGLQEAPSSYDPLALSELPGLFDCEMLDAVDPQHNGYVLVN

CC(=O)[O-].CC(=O)[O-].CC(=O)[O-].CC(=O)[O-].CC(=O)[O-].CC(=O)[O-].[Zn+2].[Zn+2].[Zn+2].c1ccc(-c2csc(NCCN(CCNc3nc(-c4ccccn4)cs3)CCNc3nc(-c4ccccn4)cs3)n2)nc1.c1ccc(-c2csc(NCCN(CCNc3nc(-c4ccccn4)cs3)CCNc3nc(-c4ccccn4)cs3)n2)nc1 [[L2Zn3]6+]
% Inhibition, Mean ([1]; STK33): 6.55%
% Inhibition, Run 1 / Run 2 ([1]; STK33): 3.3% and 10%
mean % activity ([1]; STK33): 93%
% activity ([1]; STK33, duplicate runs): 97% and 90%
% Inhibition, Mean ([2]; CK1γ2): 12%
mean % activity ([2]; CK1γ2): 88%
% activity ([2]; CK1γ2, duplicate runs): 82% and 94%
% Activation, Mean value [3]: 5%
% Inhibition, Mean [3]: -5%
% Inhibition, Run 1 / Run 2 [3]: -3.4% and -6.5%
mean % activity [3]: 105%
% activity ([3]; duplicate runs): 103% and 107%
% Inhibition, Mean ([4]; MARK1): 23%
% Inhibition, Run 1 / Run 2 ([4]; MARK1): 26% and 20%
mean % activity ([4]; MARK1): 77%
% activity ([4]; MARK1, duplicate runs): 74% and 80%
% Activation, Mean value ([5]; TAO1): 8%
% Inhibition, Mean ([5]; TAO1): -8%
mean % activity ([5]; TAO1): 108%
% activity ([5]; TAO1, duplicate runs): 93% and 122%
% Inhibition, Mean ([6]; SIK2): 68%
% Inhibition, Run 1 / Run 2 ([6]; SIK2): 72% and 64%
mean % activity ([6]; SIK2): 32%
% activity ([6]; SIK2, duplicate runs): 29% and 36%
% Inhibition, Mean ([7]; WNK1): 2.3%
mean % activity ([7]; WNK1): 98%
% activity ([7]; WNK1, duplicate runs): 90% and 106%
% Inhibition, Mean ([8]; IRAK1): 11%
mean % activity ([8]; IRAK1): 89%
% activity ([8]; IRAK1, duplicate runs): 97% and 81%
% Inhibition, Mean [9]: 50%
% Inhibition, Run 1 / Run 2 [9]: 54% and 46%
mean % activity [9]: 50%
% activity ([9]; duplicate runs): 46% and 54%

[Cu+2].[Cu+2].[Cu+2].c1ccc(-c2csc(NCCN(CCNc3nc(-c4ccccn4)cs3)CCNc3nc(-c4ccccn4)cs3)n2)nc1.c1ccc(-c2csc(NCCN(CCNc3nc(-c4ccccn4)cs3)CCNc3nc(-c4ccccn4)cs3)n2)nc1 [[L2Cu3]6+]
% Activation, Mean value ([1]; STK33): 7%
% Inhibition Run 1 ([1]; STK33): -1.8%
% Inhibition Run 2 ([1]; STK33): -12.3%
% Inhibition, Mean ([1]; STK33): -7%
mean % activity ([1]; STK33): 107%
% activity ([1]; STK33, Run 1): 101.8%
% activity ([1]; STK33, Run 2): 112.3%
% Inhibition Run 1 ([2]; CK1γ2): 23.7%
% Inhibition Run 2 ([2]; CK1γ2): 10.8%
% Inhibition, Mean ([2]; CK1γ2): 17%
mean % activity ([2]; CK1γ2): 83%
% activity ([2]; CK1γ2, Run 1): 76.3%
% activity ([2]; CK1γ2, Run 2): 89.2%
% Activation, Mean value [3]: 3.55%
% Inhibition Run 1 [3]: -1.3%
% Inhibition Run 2 [3]: -5.8%
% Inhibition, Mean [3]: -3.55%
mean % activity [3]: 104%
% activity ([3]; Run 1): 101.3%
% activity ([3]; Run 2): 105.8%
% Inhibition Run 1 ([4]; MARK1): 26.5%
% Inhibition Run 2 ([4]; MARK1): 16.9%
% Inhibition, Mean ([4]; MARK1): 22%
mean % activity ([4]; MARK1): 78%
% activity ([4]; MARK1, Run 1): 73.5%
% activity ([4]; MARK1, Run 2): 83.1%
% Activation, Mean value ([5]; TAO1): 10%
% Inhibition Run 1 ([5]; TAO1): -6.6%
% Inhibition Run 2 ([5]; TAO1): -13.8%
% Inhibition, Mean ([5]; TAO1): -10%
mean % activity ([5]; TAO1): 110%
% activity ([5]; TAO1, Run 1): 106.6%
% activity ([5]; TAO1, Run 2): 113.8%
% Activity Run 1 ([5]; TAO1, 10 µM): 106.60%
% Activity Run 2 ([5]; TAO1, 10 µM): 113.80%
% Inhibition Run 1 ([6]; SIK2): 88.3%
% Inhibition Run 2 ([6]; SIK2): 90.4%
% Inhibition, Mean ([6]; SIK2): 89%
mean % activity ([6]; SIK2): 11%
% activity ([6]; SIK2, Run 1): 11.7%
% activity ([6]; SIK2, Run 2): 9.6%
% Inhibition Run 1 ([7]; WNK1): 12.1%
% Inhibition Run 2 ([7]; WNK1): -2.6%
% Inhibition, Mean ([7]; WNK1): 4.75%
mean % activity ([7]; WNK1): 95%
% activity ([7]; WNK1, Run 1): 87.9%
% activity ([7]; WNK1, Run 2): 102.6%
% Inhibition Run 1 ([8]; IRAK1): 41.6%
% Inhibition Run 2 ([8]; IRAK1): 44.4%
% Inhibition, Mean ([8]; IRAK1): 43%
mean % activity ([8]; IRAK1): 57%
% activity ([8]; IRAK1, Run 1): 58.4%
% activity ([8]; IRAK1, Run 2): 55.6%
% Inhibition Run 1 [9]: 92.4%
% Inhibition Run 2 [9]: 91.3%
% Inhibition, Mean [9]: 92%
mean % activity [9]: 8%
% activity ([9]; Run 1): 7.6%
% activity ([9]; Run 2): 8.7%
% Activity inhibition Mean ([9]; 10 µM): 91.9%
% Activity inhibition Run 1 ([9]; 10 µM): 92.4%
% Activity inhibition Run 2 ([9]; 10 µM): 91.3%
% Activity remaining Run 1 ([9]; 10 µM): 7.60%
% Activity remaining Run 2 ([9]; 10 µM): 8.70%
